Results reported in patent publication US4228298A, “15-Deoxy-16-hydroxy-16-fluoromethyl, difluoromethyl or trifluoromethyl prostaglandins of the E and F series” (American Cyanamid Company, priority 1979, dated 1980).

Columns and labels:
Format in all cases: in vivo
[1] = system: bronchospasms elicited by histamine; experiment: Konzett procedure, bronchodilator activity against bronchospasms elicited by intravenous histamine; details: Cavia porcellus; spasmogen histamine; three logarithmic cumulative intravenous doses; guinea-pigs; read-out: ED 50 (spasmogen Histamine)
Description: (§1) The bronchodilator activity for representative compounds of this invention was determined in Guinea-Pigs against bronchospasms elicited by intravenous injections of serotonin, histamine, and acetylcholine, by the Konzett procedure the details of which are those discussed by J. Lulling, P. Lievens, F. El Sayed and J. Prignot, Arzeimittel-Forschung 18, 995 (1968).
(§2) In the table which follows, bronchodilator activity for representative compounds of the invention against spasmogenic agents serotonin, histamine, and acetylcholine is expressed as an ED50 determined from the results obtained with three logarithmic cumulative intravenous doses.

[2] = system: bronchospasms elicited by acetylcholine; experiment: Konzett procedure, bronchodilator activity against bronchospasms elicited by intravenous acetylcholine; details: Cavia porcellus; spasmogen acetylcholine; three logarithmic cumulative intravenous doses; guinea-pigs; read-out: ED 50 (spasmogen Acetylcholine)
Description: as §1, §2

[3] = system: bronchospasms elicited by serotonin; experiment: Konzett procedure, bronchodilator activity against bronchospasms elicited by intravenous serotonin; details: Cavia porcellus; spasmogen serotonin; three logarithmic cumulative intravenous doses; guinea-pigs; read-out: ED 50 (spasmogen Serotonin)
Description: as §1, §2

Row | SMILES | ED50 [1] [µg/kg] | ED50 [2] [µg/kg] | ED50 [3] [µg/kg]
1 | CCCCC(O)(C/C=C/[C@H]1[C@H](O)CC(=O)[C@@H]1C/C=C\CCCC(=O)O)C(F)F (relative stereo) [dl-11α,16-dihydroxy-9-oxo-16-difluoromethyl-5-cis-13-trans prostadienoic acid] | 2.78 | 4.04 | 4.6
2 | CCCCC(O)(C/C=C/[C@H]1[C@H](O)CC(=O)[C@@H]1C/C=C\CCCC(=O)O)C(F)(F)F (relative stereo) [dl-11α,16-dihydroxy-9-oxo-16-trifluoromethyl-5-cis-13-trans prostadienoic acid] | 4.15 | 10 | 7.96
3 | CCCCC(O)(CF)C/C=C/[C@H]1[C@H](O)CC(=O)[C@@H]1C/C=C\CCCC(=O)O (relative stereo) [dl-11α,16-dihydroxy-9-oxo-16-fluoromethyl-5-cis-13-trans prostadienoic acid] | 2.57 | 1.94 | 1.38
